How the values were obtained:
Assay type in all cases: biochemical
[1] = target: T1, BTK (Homo sapiens, UniProt Q06187); test: Kinase enzyme activity assay (mobility shift assay, Carna); settings: for Percentage inhibition of kinase enzyme activity: BTK, 1 µmol/L of BTK inhibitor
T1 construct: purchased Carna Biosciences, Inc

[2] = target: T2, CDK2/CycA2 (Homo sapiens, UniProt P24941); test: Kinase panel profiling at 1 µmol/L (mobility shift assay, Carna); settings: 1 µmol/L of BTK inhibitor
T2 construct: purchased Carna Biosciences

[3] = target: T3, DAPK1 (Homo sapiens, UniProt P53355); test: as above; settings: 1 µmol/L of BTK inhibitor
T3 construct: purchased Carna Biosciences

[4] = target: T4, NEK9 (Homo sapiens, UniProt Q8TD19); test: as above; settings: 1 µmol/L of BTK inhibitor
T4 construct: purchased Carna Biosciences
T4 sequence (Q8TD19 1-979): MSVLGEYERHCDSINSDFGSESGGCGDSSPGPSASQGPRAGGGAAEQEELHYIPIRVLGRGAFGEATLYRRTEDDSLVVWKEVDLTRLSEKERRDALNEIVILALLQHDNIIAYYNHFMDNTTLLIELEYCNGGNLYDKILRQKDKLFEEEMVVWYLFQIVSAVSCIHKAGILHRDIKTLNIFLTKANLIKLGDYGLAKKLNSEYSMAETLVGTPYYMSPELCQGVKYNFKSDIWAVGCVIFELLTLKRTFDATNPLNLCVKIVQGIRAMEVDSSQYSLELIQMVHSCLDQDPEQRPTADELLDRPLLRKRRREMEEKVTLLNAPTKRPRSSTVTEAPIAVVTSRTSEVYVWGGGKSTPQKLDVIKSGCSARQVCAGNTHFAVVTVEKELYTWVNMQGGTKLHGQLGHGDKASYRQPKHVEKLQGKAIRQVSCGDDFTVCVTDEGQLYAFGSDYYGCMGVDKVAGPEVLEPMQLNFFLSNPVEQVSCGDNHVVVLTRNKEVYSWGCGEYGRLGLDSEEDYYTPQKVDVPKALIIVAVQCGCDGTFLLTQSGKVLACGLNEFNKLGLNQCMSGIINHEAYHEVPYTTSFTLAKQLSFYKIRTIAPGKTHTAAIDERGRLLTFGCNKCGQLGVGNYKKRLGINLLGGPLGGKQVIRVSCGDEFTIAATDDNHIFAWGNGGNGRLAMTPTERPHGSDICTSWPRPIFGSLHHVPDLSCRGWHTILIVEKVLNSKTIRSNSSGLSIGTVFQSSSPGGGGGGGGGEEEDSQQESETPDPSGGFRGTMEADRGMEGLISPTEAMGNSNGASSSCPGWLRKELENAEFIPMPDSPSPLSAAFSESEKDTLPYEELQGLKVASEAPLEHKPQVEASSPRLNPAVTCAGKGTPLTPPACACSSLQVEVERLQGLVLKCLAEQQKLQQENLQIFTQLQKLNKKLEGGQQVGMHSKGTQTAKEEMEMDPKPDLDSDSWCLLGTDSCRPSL

[5] = target: T5, PKCε (Homo sapiens, UniProt Q02156); test: as above; settings: 1 µmol/L of BTK inhibitor
T5 construct: purchased Carna Biosciences
T5 sequence (Q02156 1-737): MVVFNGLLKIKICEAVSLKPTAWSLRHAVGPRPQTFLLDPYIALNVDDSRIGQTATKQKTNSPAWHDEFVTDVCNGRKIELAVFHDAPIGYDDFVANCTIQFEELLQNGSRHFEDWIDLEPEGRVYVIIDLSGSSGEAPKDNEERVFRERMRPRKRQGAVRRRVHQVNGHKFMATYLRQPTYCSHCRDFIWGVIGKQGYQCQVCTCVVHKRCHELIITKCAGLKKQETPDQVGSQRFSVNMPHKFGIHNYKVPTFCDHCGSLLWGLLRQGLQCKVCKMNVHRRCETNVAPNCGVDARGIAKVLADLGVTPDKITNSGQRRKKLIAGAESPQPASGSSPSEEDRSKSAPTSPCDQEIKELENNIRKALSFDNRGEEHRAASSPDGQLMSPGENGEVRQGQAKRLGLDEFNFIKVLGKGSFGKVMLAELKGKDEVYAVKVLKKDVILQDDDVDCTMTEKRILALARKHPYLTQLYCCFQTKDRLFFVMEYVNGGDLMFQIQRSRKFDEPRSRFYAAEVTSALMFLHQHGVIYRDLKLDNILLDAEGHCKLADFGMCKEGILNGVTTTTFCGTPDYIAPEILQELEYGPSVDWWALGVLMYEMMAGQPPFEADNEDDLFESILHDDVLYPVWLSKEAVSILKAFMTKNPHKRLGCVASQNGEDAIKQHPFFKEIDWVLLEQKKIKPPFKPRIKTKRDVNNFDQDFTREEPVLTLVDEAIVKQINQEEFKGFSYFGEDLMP

[6] = target: T6, TSSK2 (Homo sapiens, UniProt Q96PF2); test: as above; settings: 1 µmol/L of BTK inhibitor
T6 construct: purchased Carna Biosciences
T6 sequence (Q96PF2 1-358): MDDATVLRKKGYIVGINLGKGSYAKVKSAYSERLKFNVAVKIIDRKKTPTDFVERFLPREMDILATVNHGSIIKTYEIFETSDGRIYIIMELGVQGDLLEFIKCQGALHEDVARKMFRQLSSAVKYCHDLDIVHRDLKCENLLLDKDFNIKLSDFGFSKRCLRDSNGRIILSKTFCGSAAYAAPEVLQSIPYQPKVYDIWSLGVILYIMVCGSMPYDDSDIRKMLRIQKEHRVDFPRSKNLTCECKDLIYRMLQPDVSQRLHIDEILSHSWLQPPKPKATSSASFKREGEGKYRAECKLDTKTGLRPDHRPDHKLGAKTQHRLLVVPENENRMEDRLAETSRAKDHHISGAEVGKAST

T1 sequence (Q06187 whole entry): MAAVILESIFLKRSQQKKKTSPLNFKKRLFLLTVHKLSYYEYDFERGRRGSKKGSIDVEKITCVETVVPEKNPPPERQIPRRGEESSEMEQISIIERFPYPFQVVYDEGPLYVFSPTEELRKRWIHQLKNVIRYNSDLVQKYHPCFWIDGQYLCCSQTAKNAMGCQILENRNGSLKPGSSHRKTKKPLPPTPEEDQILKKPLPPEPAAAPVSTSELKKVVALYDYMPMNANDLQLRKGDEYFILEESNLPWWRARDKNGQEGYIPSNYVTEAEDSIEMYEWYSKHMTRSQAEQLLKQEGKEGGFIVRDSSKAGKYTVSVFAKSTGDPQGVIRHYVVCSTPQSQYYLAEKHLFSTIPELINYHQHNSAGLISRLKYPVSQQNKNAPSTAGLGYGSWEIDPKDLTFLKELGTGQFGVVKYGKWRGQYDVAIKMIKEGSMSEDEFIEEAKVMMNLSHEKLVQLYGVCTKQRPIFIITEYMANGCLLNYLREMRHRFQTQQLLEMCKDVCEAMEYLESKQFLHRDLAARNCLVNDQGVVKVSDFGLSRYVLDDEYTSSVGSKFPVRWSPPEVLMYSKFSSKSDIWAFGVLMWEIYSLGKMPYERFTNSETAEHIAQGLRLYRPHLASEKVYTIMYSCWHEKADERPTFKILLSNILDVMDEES
T3 sequence (P53355 whole entry): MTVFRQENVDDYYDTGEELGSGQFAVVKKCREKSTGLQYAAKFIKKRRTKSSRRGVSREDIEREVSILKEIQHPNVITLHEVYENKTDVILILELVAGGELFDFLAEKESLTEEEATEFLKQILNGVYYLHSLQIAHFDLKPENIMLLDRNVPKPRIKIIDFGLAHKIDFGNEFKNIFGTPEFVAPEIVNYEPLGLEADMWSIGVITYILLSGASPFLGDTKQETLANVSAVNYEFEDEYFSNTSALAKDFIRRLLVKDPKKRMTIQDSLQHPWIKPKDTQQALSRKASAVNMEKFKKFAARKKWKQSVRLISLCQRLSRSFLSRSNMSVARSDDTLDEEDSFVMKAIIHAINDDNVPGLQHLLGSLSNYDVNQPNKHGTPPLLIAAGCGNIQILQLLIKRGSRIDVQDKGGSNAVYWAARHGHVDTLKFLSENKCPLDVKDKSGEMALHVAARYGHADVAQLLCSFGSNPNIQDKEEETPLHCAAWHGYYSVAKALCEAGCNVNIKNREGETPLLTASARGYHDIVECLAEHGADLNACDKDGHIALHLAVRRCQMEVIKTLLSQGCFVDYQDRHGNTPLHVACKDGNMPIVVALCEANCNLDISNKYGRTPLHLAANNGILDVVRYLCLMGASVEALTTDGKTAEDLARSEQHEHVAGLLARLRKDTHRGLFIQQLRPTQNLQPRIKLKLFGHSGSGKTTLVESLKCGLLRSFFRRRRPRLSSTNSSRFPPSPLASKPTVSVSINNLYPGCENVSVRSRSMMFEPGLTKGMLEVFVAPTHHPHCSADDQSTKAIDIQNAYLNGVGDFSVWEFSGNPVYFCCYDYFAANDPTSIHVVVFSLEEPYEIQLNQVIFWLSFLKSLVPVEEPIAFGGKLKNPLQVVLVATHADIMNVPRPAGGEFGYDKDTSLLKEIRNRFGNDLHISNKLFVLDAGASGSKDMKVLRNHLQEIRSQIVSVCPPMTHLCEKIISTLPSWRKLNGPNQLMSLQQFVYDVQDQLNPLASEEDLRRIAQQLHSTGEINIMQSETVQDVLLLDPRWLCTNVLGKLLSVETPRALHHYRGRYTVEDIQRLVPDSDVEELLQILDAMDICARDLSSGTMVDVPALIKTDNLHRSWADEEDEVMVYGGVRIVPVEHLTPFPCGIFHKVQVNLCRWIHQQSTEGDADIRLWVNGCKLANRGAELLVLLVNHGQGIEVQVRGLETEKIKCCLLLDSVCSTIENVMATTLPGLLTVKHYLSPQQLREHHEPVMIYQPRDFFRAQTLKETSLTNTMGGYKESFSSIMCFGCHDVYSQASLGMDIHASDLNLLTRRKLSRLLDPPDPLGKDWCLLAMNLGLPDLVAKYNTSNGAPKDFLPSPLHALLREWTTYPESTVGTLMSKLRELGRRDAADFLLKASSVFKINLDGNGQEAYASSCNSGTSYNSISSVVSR

With `CC#CC(=O)N1CCC[C@H]1c1nc(-c2ccc(C(=O)Nc3ccccn3)cc2)c2c(N)nccn12` [acalabrutinib] the “Percentage inhibition of kinase enzyme activity” value (“Percentage inhibition” for short) [1] was 94.95%, the “Percentage inhibition” value [2] was -5.19% and the “Percentage inhibition” value [3] was -17.45%. For the same molecule, the “Percentage inhibition” value [4] was -3.18%, the “Percentage inhibition” value [5] was -8.62% and the “Percentage inhibition” value [6] was -3.11%.

For `C=CC(=O)N1CCC[C@@H](n2nc(-c3ccc(Oc4ccccc4)cc3)c3c(N)ncnc32)C1` [ibrutinib], the “Percentage inhibition” value [2] was -11.88%, the “Percentage inhibition” value [3] was -3.80% and the “Percentage inhibition” value [4] was -3.28%. For the same molecule, the “Percentage inhibition” value [5] was 7.63% and the “Percentage inhibition” value [6] was -3.91%.

`O=C(c1ccc(Oc2ccccc2)cc1Cl)c1c[nH]c2ncnc(N[C@@H]3CC[C@@H](CO)OC3)c12` [nemtabrutinib] was tested, and the “Percentage inhibition” value [1] was 97.07%, the “Percentage inhibition” value [2] was -1.69% and the “Percentage inhibition” value [3] was -7.44%. For the same molecule, the “Percentage inhibition” value [4] was -0.83%, the “Percentage inhibition” value [5] was 12.58% and the “Percentage inhibition” value [6] was -0.84%.

For `COc1ccc(F)cc1C(=O)NCc1ccc(-c2nn([C@@H](C)C(F)(F)F)c(N)c2C(N)=O)cc1` [pirtobrutinib], the “Percentage inhibition” value [1] was 98.09%, the IC50 ([1]; K M,bin ATP) was 2.3 nM and the “Percentage inhibition” value [2] was -4.56%. The “Percentage inhibition” value [3] was -0.51%, the “Percentage inhibition” value [4] was -2.20% and the “Percentage inhibition” value [5] was 18.12%. For the same molecule, the “Percentage inhibition” value [6] was -11.71%.

Source: PMC12586182 (Frontiers in Oncology, 2025)
